Results on one compound are retold here after article PMC9268102, “Design, Synthesis and Biological Evaluation of 1,3,5-Triazine Derivatives Targeting hA1 and hA3 Adenosine Receptor” (Molecules, 2022).

Holding throughout (assay type): cell-based
Assay [1] has as its system A549 cells. The experiment in a line: Cell viability (MTS) assay in A549 cells. The settings on record: Homo sapiens, 48 h. The protocol:
(§1) To test the effect of the compounds in terms of cell growth regulation in lung cancer cell lines such as A549 and NCI-H1299 cells, these cells were treated in 96-well plates for 48 h with the compounds at concentrations ranging from 0 μM to 100 μM. […] Therefore, we decided to perform an additional experiment with 9c.
(§2) A549 and NCI-H1299 cells were seeded in 96-well plates at a density of 1 × 10^5 cells per well for 24 h before being exposed to compounds at various concentrations. After 48 h of compound treatment, the CellTiter 96 AQueous One Solution Cell Proliferation Assay Kit (Promega, Madison, WI, USA) was used to conduct a cell viability assay. The cells were incubated with solution reagents for 2 h at 37 °C before being measured for absorbance at 490 nm using a Synergy HTX Multi-Mode microplate reader (BioTek Instruments, Inc., Winooski, VT, USA).

The subject of a further assay is NCI-H1299 cells. Description: Cell viability (MTS) assay in NCI-H1299 cells. The settings on record: Homo sapiens, 48 h. The protocol:
as §1, §2

The test system of assay [2] is A549 cells. The experiment in a line: Intracellular ROS by H2DCF-DA flow cytometry. The settings on record: 48 h, control 1.26%. From the text: Although reactive oxygen species (ROS) play an important role in regulating normal cellular processes, abnormal ROS levels contribute to the development of a variety of human diseases, including cancer. Because of their accelerated metabolism, cancer cells have higher ROS levels than normal cells. Nevertheless, the high ROS content of cancer cells makes them more susceptible to oxidative stress-induced cell death, which can be used to target cancer cells selectively. Flow cytometry was used to determine whether 9c induces ROS generation in A549 cells by examining the results. The experiment was conducted with H2DCF-DA as a fluorescent probe. […] Next, we determined the effect of 9c in regulating mitochondrial ROS.
(§3) A549 cells were incubated with a fluorescent indicator, specifically 100 nM tetramethylrhodamine methyl ester perchlorate (TMRM, Thermo Fisher Scientific, Waltham, MA, USA), to determine the mitochondrial membrane potential. The A549 cells treated with the compound were harvested after 48 h, washed in PBS, and re-suspended in FACS buffer (PBS supplemented with 2 percent fetal bovine serum). […] Intracellular fluorescence measurements involved the use of a flow cytometer (BD FACSVerse, BD Biosciences, San Jose, CA, USA) and the FlowJo software (Version 10, TreeStar, Ashland, OR, USA).

In assay [3] the test system is A549 cells. Description: Mitochondrial membrane potential by TMRM flow cytometry. The settings on record: 48 h, control 93.8%. The protocol:
ROS-induced oxidative stress can cause the rapid depolarization of the inner mitochondrial membrane potential (ΔΨm) and, as a result, impairment of oxidative phosphorylation. Using tetramethylrhodamine methyl ester (TMRM) measurements, we investigated how mitochondrial membrane potential was affected by 9c. A549 cells were exposed to 9c following incubation with TMRM. Afterward, flow cytometry was employed to calculate the intensity of TMRM binding in the healthy membrane.
as §3, with “serum). A flow cytometer (BD FACSVerse, BD Biosciences, San Jose, CA, USA) and the FlowJo software (FlowJo LLC, Ashland, OR, USA) were used to analyze the cells.” for “serum).”

Assay [4] deals with A549 cells. Description: Live-dead assay (calcein/EthD-1) by flow cytometry. The settings on record: 48 h. The protocol: A live cell assay and a dead cell assay were carried out using a mixture of two fluorescent dyes: calcein (green dye for live cells) and ethidium homodimer-1 (EthD-1, red dye for dead cells). The cells were washed and stained with calcein and EthD-1 before conducting imaging fluorescence microscopy and flow cytometry experiments. When treated with 20 μM 9c, we observed a drastic decrease in the number of live cells (green) and a slight increase in the number of dead cells (red).
The A549 cells were seeded in 6-well plates at a density of 1 × 10^6 cells per well, and the cells underwent treatment with the compound (20 and 40 μM) for 48 h. The A549 cells were analyzed using fluorescent dyes for both living and dead cells with the LIVE/DEAD kit (Thermo Fisher Scientific, Waltham, MA, USA). For cell staining, we used EthD-1 and calcein by referring to the manufacturer’s instructions. Images were captured with an EVOS M5000 Imaging System (Thermo Fisher Scientific Inc., Waltham, MA, USA).

SMILES strings stand for the structures.

Regarding `COc1cc(Nc2nc(N)nc(-c3ccc(O)cc3)n2)ccc1Cl` [Compound 9c, 4-{4-amino-6-[(4-chloro-3-methoxyphenyl)amino]-1,3,5-triazin-2-yl}phenol], the viability (usually the share of living cells, or the viability signal relative to a control) at 25 µM with A549 cells [1] is 59.9%; in the assay on NCI-H1299 cells, 68.8%. In addition, the “ROS level (H2DCF-DA positive)” value with A549 cells [2] (20 μM) came out at 7.31%; in the assay with A549 cells [2] (40 μM) it was 22.6%. Besides, the results for the “TMRM-positive intensity, TMRM (+)” value in the assay with A549 cells [3] (20 μM) and in the assay on A549 cells [3] (40 μM) were 74.6% and 52.3%, respectively. Moreover, the “Dead cells (quadrant Q4)” value in the assay with A549 cells [4] (20 μM) is 34.4%; in the assay on A549 cells [4] (40 μM), 46.1%.
